Results taken from patent publication US12193443B2, “Use of benzoxepin derivatives as a herbicide” (ECOLE POLYTECHNIQUE, priority 2019, dated 2025).

Test system: Arabidopsis thaliana seedlings
Assay: Test of the herbicidal activity on Arabidopsis thaliana seedlings grown hydroponically at the cotyledon stage
Assay type: in vivo
Parameters: key: A for Active in the case where the plant is killed, that is to say when the two cotyledons have lost all of their green coloration; “N” for Not active, in the case where no biological activity is observed
Settings: for Activity after 24 h: 24 h after application; for Activity after 96 h: 96 h after application
Procedure: The compounds were tested on Arabidopsis thaliana seedlings grown hydroponically at the cotyledon stage. Sterile seeds are germinated in the light in a culture plate, in the presence of 200 μL of nutrient medium. After five days of culture (time 0 of the trial), the nutrient medium is replaced with an equivalent volume (200 μL) of this same medium containing the compound to be tested at different concentrations. The manifestation of herbicidal activity is indicated by A for Active in the case where the plant is killed, that is to say when the two cotyledons have lost all of their green coloration, 24 h and 96 h after application of the product. The absence of herbicidal activity is indicated by “N” for Not active, in the case where no biological activity is observed.

Question: Which “Activity after 24 h” value (10 μg/mL in nutrient medium) does the source give for `CC1=CCc2c(O)cc(CCc3ccccc3)cc2OC1` [Compound A] here?
Answer: N

Question: What about the “Activity after 96 h” value (10 μg/mL in nutrient medium) of the same molecule?
Answer: N

Question: What about the “Activity after 24 h” value (50 μg/mL in nutrient medium) of the same molecule?
Answer: A

Question: What about the “Activity after 96 h” value (50 μg/mL in nutrient medium) of the same molecule?
Answer: A

Question: What about the “Activity after 24 h” value (100 μg/mL in nutrient medium) of the same molecule?
Answer: A

Question: What about the “Activity after 96 h” value (100 μg/mL in nutrient medium) of the same molecule?
Answer: A

Question: How did the “Activity after 24 h” value (10 μg/mL in nutrient medium) turn out when `CC1=CCOc2cc(CCc3ccccc3)c(C(=O)O)c(O)c2C1` [Compound C] was run?
Answer: A

Question: And the “Activity after 96 h” value (10 μg/mL in nutrient medium)?
Answer: A

Question: And the “Activity after 24 h” value (50 μg/mL in nutrient medium)?
Answer: A

Question: What about the “Activity after 96 h” value (50 μg/mL in nutrient medium) of the same molecule?
Answer: A

Question: What about the “Activity after 24 h” value (100 μg/mL in nutrient medium) of the same molecule?
Answer: A

Question: What about the “Activity after 96 h” value (100 μg/mL in nutrient medium) of the same molecule?
Answer: A

Question: For `COC(=O)c1c(CCc2ccccc2)cc2c(c1O)CC=C(C)CO2` [Compound D], which “Activity after 24 h” value (10 μg/mL in nutrient medium) is on record?
Answer: N

Question: And the “Activity after 96 h” value (10 μg/mL in nutrient medium)?
Answer: N

Question: And the “Activity after 24 h” value (50 μg/mL in nutrient medium)?
Answer: N

Question: And the “Activity after 96 h” value (50 μg/mL in nutrient medium)?
Answer: A

Question: And the “Activity after 24 h” value (100 μg/mL in nutrient medium)?
Answer: N

Question: What about the “Activity after 96 h” value (100 μg/mL in nutrient medium) of the same molecule?
Answer: A

Question: What does the source list for `Oc1cccc2c1CC=CCO2` [Compound E, reference compound]?
Answer: Activity after 24 h (10 μg/mL in nutrient medium): N; Activity after 96 h (10 μg/mL in nutrient medium): N; Activity after 24 h (50 μg/mL in nutrient medium): N; Activity after 96 h (50 μg/mL in nutrient medium): N; Activity after 24 h (100 μg/mL in nutrient medium): N; Activity after 96 h (100 μg/mL in nutrient medium): N

Question: For `CC1=CCc2c(cc(CCc3ccccc3)c(C(=O)O)c2O)OC1` [Compound H], which “Activity after 24 h” value (10 μg/mL in nutrient medium) is on record?
Answer: A

Question: And the “Activity after 96 h” value (10 μg/mL in nutrient medium)?
Answer: A

Question: What about the “Activity after 24 h” value (50 μg/mL in nutrient medium) of the same molecule?
Answer: A

Question: And the “Activity after 96 h” value (50 μg/mL in nutrient medium)?
Answer: A

Question: And the “Activity after 24 h” value (100 μg/mL in nutrient medium)?
Answer: A

Question: And the “Activity after 96 h” value (100 μg/mL in nutrient medium)?
Answer: A
